Assay results reported in PubChem BioAssay (NCI).
Several values for one entry are separate records, joined by “and”; a condition that tells them apart may be missing. Identical values can stand only once.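 A five-concentration, 48-hour dose response in 96-well plates underlies each endpoint, interpolated linearly between surrounding concentrations. Abbreviation: GI50, concentration required for 50% inhibition of growth. TGI denotes the concentration required for complete inhibition of growth.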

What was measured:
Assay in all cases: inhibition of tumour cell growth, NCI panel, 48 h
[1] = tested on: PC-3 prostate
[2] = tested on: RPMI-8226 leukemia
[3] = tested on: A498 renal
[4] = tested on: NCI-H23 lung
[5] = tested on: OVCAR-4 ovarian
[6] = tested on: SF-539 CNS
[7] = tested on: SW-620 colon
[8] = tested on: U251 CNS
[9] = tested on: A549 NSCLC
[10] = tested on: MOLT-4 leukemia

Structure (SMILES)	GI50 [1]	TGI [1]	GI50 [2]	TGI [2]	GI50 [3]	GI50 [4]	TGI [4]	GI50 [5]	TGI [5]	GI50 [6]	TGI [6]	GI50 [7]	TGI [7]	GI50 [8]	TGI [8]	GI50 [9]	TGI [9]	GI50 [10]	TGI [10]	TGI [3]
Cc1cnc(NC(=O)Nc2cc(Br)c(C)cc2OC[C@@H]2CNCCO2)cn1	5.77 µM and 3.73 µM	> 10 µM and 16.4 µM	3.05 µM and 1.52 µM	> 10 µM and 8.52 µM	0.33 µM and 0.0894 µM	0.466 µM and 0.548 µM	> 10 µM and 9.42 µM	5.85 µM and 1.05 µM	> 10 µM and 15.5 µM	0.457 µM and 0.281 µM	3.87 µM and 0.805 µM	3.68 µM and 3.28 µM	> 10 µM and 13.4 µM	2.44 µM and 3.07 µM	> 10 µM and 13.9 µM	1.71 µM and 1.93 µM	> 10 µM and 15.8 µM	0.445 µM and 0.368 µM	> 10 µM and 3.9 µM	
CCN(Cc1cccc(F)c1)c1ccc(CO)c(Cl)c1	21.8 µM	> 82.5 µM	5.98 µM	> 56 µM	0.0356 µM	10.8 µM	74.4 µM	0.318 µM	15.1 µM	23.8 µM	63.5 µM	0.808 µM	> 100 µM	1.01 µM	26.5 µM	2.31 µM	35 µM	25.2 µM	> 74.5 µM	0.169 µM
COc1ccc(S(=O)(=O)N2CC(C)(C)CN(S(=O)(=O)c3ccc(OC)cc3)C2C(=O)NO)cc1	> 20 µM	> 20 µM	6.37 µM	> 20 µM	> 20 µM	> 20 µM	> 20 µM	> 20 µM	> 20 µM	> 20 µM	> 20 µM	> 20 µM	> 20 µM	> 20 µM	> 20 µM	> 20 µM	> 20 µM	> 11 µM	> 20 µM	> 20 µM
Cc1ccc(S(=O)(=O)NC(=O)C2C(=O)CC3(CCCCC3)CC2=O)cc1		81.3 µM		51.5 µM			> 100 µM		> 100 µM		77.5 µM		84.7 µM		> 100 µM		> 100 µM		> 100 µM	80.6 µM
C#CCOc1cccc(-c2ncnc3cc(NC(=O)CCl)ccc23)c1	0.813 µM	4.84 µM	1.67 µM	6.13 µM	3.83 µM	0.886 µM	3.14 µM	1.2 µM	2.59 µM	1.31 µM	2.77 µM	0.0221 µM	1.51 µM	0.149 µM	2.76 µM	0.451 µM	3.96 µM	0.043 µM	> 100 µM	15.9 µM
COc1cc(C#Cc2ccc(=O)oc2C#Cc2ccccc2)cc(OC)c1OC	4.13 µM	16.3 µM	2.33 µM	17.7 µM	19.1 µM	2.59 µM	7.63 µM	4.97 µM	68.6 µM	3.58 µM	11.3 µM	2.04 µM	4.28 µM	1.9 µM	3.6 µM	10.3 µM	43.9 µM	3.43 µM	> 45.1 µM	34.5 µM
COc1ccc(C(=O)/C=C/c2ccc(C)cc2)cc1OC	15.4 µM	32.4 µM	17.5 µM	47 µM	12.5 µM	10.4 µM	22.8 µM	12.2 µM	24.7 µM	5.32 µM	18.2 µM	10.2 µM	21.8 µM	4.78 µM	17.3 µM	11.2 µM	26 µM	16.6 µM	47.2 µM	25 µM
CNC(=O)c1ccc(N2CCN(Cc3ccc4nc(C)c(=O)[nH]c4c3F)CC2)c(F)n1	> 100 µM	> 100 µM	> 100 µM	> 100 µM	> 100 µM	70.6 µM	> 100 µM	> 100 µM	> 100 µM	55.4 µM	> 100 µM	> 100 µM	> 100 µM	36.5 µM	> 100 µM	> 100 µM	> 100 µM	> 100 µM	> 100 µM	> 100 µM
OCc1ccc(-c2ccc(-c3ccc(CO)o3)[se]2)o1	69.1 µM	> 100 µM	33.7 µM	> 100 µM	0.17 µM	> 100 µM	> 100 µM	35.4 µM	> 100 µM	> 100 µM	> 100 µM	> 100 µM	> 100 µM	> 76.4 µM	> 100 µM	> 59.8 µM	> 100 µM	41.2 µM	> 100 µM	0.375 µM
Cc1sc2nc(-c3ccncc3)c(/C=N/N=C(N)N)n2c1C	58.4 µM	> 100 µM	28 µM	78.2 µM	25.8 µM	48.4 µM	> 100 µM	67.3 µM	> 100 µM	51.9 µM	> 100 µM	34.7 µM	> 100 µM	30.5 µM	> 100 µM			18.2 µM	> 100 µM	> 100 µM
C=C(C)C(=O)O[C@H]1C[C@@]23O[C@@H]2CCC(=C[C@H]2OC(=O)C(=C)[C@H]12)COC3O (some centres not stated)		> 100 µM		63 µM			> 100 µM		> 100 µM		> 100 µM		36.4 µM		> 100 µM		> 100 µM		92.2 µM	> 100 µM
CC(C)(C)C(=O)c1c(C(F)(F)F)n([O-])c2ccccc2[n+]1=O	0.817 µM	2.38 µM	0.0234 µM	0.246 µM	0.565 µM	1.17 µM	2.39 µM	0.6 µM	2.43 µM	0.846 µM	2.37 µM	0.467 µM	2 µM	0.341 µM	1.16 µM	0.485 µM	1.26 µM	0.157 µM	0.853 µM	1.75 µM
Cc1nn(-c2nc3ccccc3[nH]2)c(N)c1-c1ccc(Cl)cc1	2.97 µM	> 100 µM	4.37 µM	> 100 µM	3.02 µM	5.23 µM	> 100 µM	5.1 µM	> 100 µM	5.89 µM	> 100 µM	4.58 µM	> 100 µM	3.18 µM	> 100 µM	2.9 µM	> 100 µM	3.54 µM	> 100 µM	> 100 µM
